# Laboratory results taken from patent USRE48461E1, “Modulation of androgen receptor expression” (Ionis Pharmaceuticals, Inc., priority 2012, dated 2021).
# pIC50: −log10 of the molar value. Oligonucleotides are written 5' to 3', each unit as a sugar letter and its base; * is a phosphorothioate linkage, no mark a phosphodiester; rarer units and linkages stand in square brackets, end groups in braces. Plain capitals give the bases only. e = 2'-O-(2-methoxyethyl) (MOE); k = constrained ethyl (cEt); [5mC] = 5-methylcytosine; d = 2'-deoxy (DNA)
# Legend:
# AR mRNA [1] = assay: Antisense inhibition of human AR in HuVEC cells, single concentration (electroporation, qRT-PCR RTS3559); type: cell-based
# Outline: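 AR mRNA levels were measured with human primer-probe set RTS3559 and adjusted for total RNA (RIBOGREEN). Cells were HuVEC, with each antisense oligonucleotide delivered by electroporation at one concentration.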
# AR mRNA [2] = assay: Dose-dependent antisense inhibition of human AR in HuVEC cells (electroporation, qRT-PCR RTS3559, IC50); type: cell-based; conditions: HuVEC
# Outline: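 HuVEC cells dosed with antisense oligonucleotides by electroporation and treated approximately 16 hours. AR mRNA quantified by real-time qPCR with primer probe set RTS3559 and normalised to total RNA by RIBOGREEN; IC50 from dose-response.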
# [3] = Table 32, electroporation, approximately 16 hours
# [4] = Table 30, electroporation, approximately 16 hours
# [5] = Table 29, electroporation, approximately 16 hours
# [6] = Table 31, electroporation, approximately 16 hours
substance,measurement,setting,value
583787 (antisense kG*kG*kT*dG*d[5mC]*dT*dG*dG*d[5mC]*d[5mC]*dT*d[5mC]*dG*k[5mC]*kT*k[5mC]) [compound 583787],% inhibition,"AR mRNA [1]; Table 19, 500 nM oligonucleotide, electroporation, approximately 24 hours, relative to untreated control",37%
same,"percent inhibition of AR, 46.9 nM",AR mRNA [2]; [3],15%
same,"percent inhibition of AR, 187.5 nM",AR mRNA [2]; [3],31%
same,"percent inhibition of AR, 750.0 nM",AR mRNA [2]; [3],66%
same,"percent inhibition of AR, 3000.0 nM",AR mRNA [2]; [3],74%
same,pIC50,AR mRNA [2]; [3],6.37
583687 (antisense kG*kG*kT*dA*dG*dT*d[5mC]*dG*d[5mC]*dT*dG*d[5mC]*dA*kG*k[5mC]*kT) [compound 583687],% inhibition,"AR mRNA [1]; 500 nM ASO, ~24 h, Table 18",41%
same,"percent inhibition of AR, 46.9 nM",AR mRNA [2]; [4],34%
same,"percent inhibition of AR, 187.5 nM",AR mRNA [2]; [4],67%
same,"percent inhibition of AR, 750.0 nM",AR mRNA [2]; [4],83%
same,"percent inhibition of AR, 3000.0 nM",AR mRNA [2]; [4],81%
same,pIC50,AR mRNA [2]; [4],7.10
583638 (antisense kT*kG*kA*dT*d[5mC]*dT*d[5mC]*dT*dG*dG*d[5mC]*dT*d[5mC]*k[5mC]*kG*k[5mC]) [compound 583638],% inhibition,"AR mRNA [1]; 500 nM ASO, ~24 h, Table 17",51%
same,"percent inhibition of AR, 46.9 nM",AR mRNA [2]; [5],33%
same,"percent inhibition of AR, 187.5 nM",AR mRNA [2]; [5],64%
same,"percent inhibition of AR, 750.0 nM",AR mRNA [2]; [5],79%
same,"percent inhibition of AR, 3000.0 nM",AR mRNA [2]; [5],85%
same,pIC50,AR mRNA [2]; [5],6.96
583564 (antisense kG*k[5mC]*kT*dT*d[5mC]*d[5mC]*dT*d[5mC]*d[5mC]*dG*dA*dG*dT*k[5mC]*kT*kT) [compound 583564],% inhibition,"AR mRNA [1]; 500 nM ASO, ~24 h, Table 16",45%
same,"percent inhibition of AR, 46.9 nM",AR mRNA [2]; [5],16%
same,"percent inhibition of AR, 187.5 nM",AR mRNA [2]; [5],33%
same,"percent inhibition of AR, 750.0 nM",AR mRNA [2]; [5],55%
same,"percent inhibition of AR, 3000.0 nM",AR mRNA [2]; [5],74%
same,pIC50,AR mRNA [2]; [5],6.28
583714 (antisense kT*k[5mC]*k[5mC]*dA*dT*d[5mC]*d[5mC]*dT*dT*dG*dA*dG*d[5mC]*kT*kT*kG) [compound 583714],% inhibition,"AR mRNA [1]; 500 nM ASO, ~24 h, Table 18",36%
same,"percent inhibition of AR, 46.9 nM",AR mRNA [2]; [6],22%
same,"percent inhibition of AR, 187.5 nM",AR mRNA [2]; [6],34%
same,"percent inhibition of AR, 750.0 nM",AR mRNA [2]; [6],59%
same,"percent inhibition of AR, 3000.0 nM",AR mRNA [2]; [6],79%
same,pIC50,AR mRNA [2]; [6],6.40
583719 (antisense kG*kT*kA*dG*dG*dT*d[5mC]*dT*dT*dG*dG*dA*d[5mC]*kG*kG*k[5mC]) [compound 583719],% inhibition,"AR mRNA [1]; 500 nM ASO, ~24 h, Table 18",36%
same,"percent inhibition of AR, 46.9 nM",AR mRNA [2]; [6],22%
same,"percent inhibition of AR, 187.5 nM",AR mRNA [2]; [6],46%
same,"percent inhibition of AR, 750.0 nM",AR mRNA [2]; [6],65%
same,"percent inhibition of AR, 3000.0 nM",AR mRNA [2]; [6],72%
same,pIC50,AR mRNA [2]; [6],6.49
549347 (k[5mC]*kT*kT*d[5mC]*dG*d[5mC]*dG*d[5mC]*dA*d[5mC]*dG*d[5mC]*dT*k[5mC]*kT*kG; antisense) [compound 549347],% inhibition,"AR mRNA [1]; 500 nM ASO, electroporation, ~24 h, Table 1",84%
same,percent inhibition of AR,"AR mRNA [2]; 55.6 nM, ~16 h, Table 4",15%
same,percent inhibition of AR,"AR mRNA [2]; 166.7 nM, ~16 h, Table 4",37%
same,percent inhibition of AR,"AR mRNA [2]; 500.0 nM, ~16 h, Table 4",62%
same,percent inhibition of AR,"AR mRNA [2]; 1500.0 nM, ~16 h, Table 4",71%
same,pIC50,"AR mRNA [2]; ~16 h, Table 4",6.45
569222 (antisense eT*eT*kG*kA*kT*dT*dT*dA*dA*dT*dG*dG*dT*kT*kG*k[5mC]) [compound 569222],% inhibition,"AR mRNA [1]; 250 nM ASO, ~24 h, Table 7",74%
same,percent inhibition of AR,"AR mRNA [2]; 31.25 nM, ~16 h, Table 8",36%
same,percent inhibition of AR,"AR mRNA [2]; 62.5 nM, ~16 h, Table 8",48%
same,percent inhibition of AR,"AR mRNA [2]; 125.0 nM, ~16 h, Table 8",67%
same,percent inhibition of AR,"AR mRNA [2]; 500.0 nM, ~16 h, Table 8",91%
same,percent inhibition of AR,"AR mRNA [2]; 1000.0 nM, ~16 h, Table 8",98%
same,pIC50,"AR mRNA [2]; ~16 h, Table 8",7.22
583542 (antisense kA*k[5mC]*kA*dG*d[5mC]*dA*d[5mC]*dT*dG*dG*dA*dG*d[5mC]*kG*kG*k[5mC]) [compound 583542],% inhibition,"AR mRNA [1]; 500 nM ASO, ~24 h, Table 16",45%
same,"percent inhibition of AR, 46.9 nM",AR mRNA [2]; [5],9%
same,"percent inhibition of AR, 187.5 nM",AR mRNA [2]; [5],28%
same,"percent inhibition of AR, 750.0 nM",AR mRNA [2]; [5],47%
same,"percent inhibition of AR, 3000.0 nM",AR mRNA [2]; [5],66%
same,pIC50,AR mRNA [2]; [5],6.05
